Measured values: patent publication US9594042B2, “Electrochemical determination of factor XA inhibitors” (Roche Diagnostics Operations Inc., priority 2006, dated 2017)

Target: factor Xa (Homo sapiens, UniProt P00742)
Test: premature factor Xa-induced degradation of the thrombin substrate during common dwelling in liquid reagent
Type: biochemical
Conditions: common dwelling time of 2 h with factor Xa
Text: The coagulation factor Xa is a serine protease which naturally recognizes the amino sequence -Ile-Glu-Gly-Arg- of prothrombin and by cleaving this sequence, activates the natural substrate prothrombin to form thrombin. In addition to this physiological substrate, factor Xa is also able to enzymatically cleave other peptides having this or other cleavage sequences. Thus, peptidic thrombin substrates and in particular the widely used Chromozym TH can also be cleaved by factor Xa. This low substrate specificity of factor Xa can result in problems in the methods according to the invention especially when such a thrombin substrate which can also be cleaved by factor Xa is used as a detection reagent and already comes into contact with factor Xa before adding the sample and can be converted thereby. As a result a portion of the thrombin substrate can already be converted such that this is no longer available for the thrombin-mediated detection reaction and thus the result of the measurement is affected. Such undesired side reactions can occur especially when factor Xa and the thrombin substrate are in contact over a long period such as would be for example the case if these two substances were to be introduced simultaneously into a liquid detection reagent. […]

factor Xa, sequence (P00742 235-488 limits assumed): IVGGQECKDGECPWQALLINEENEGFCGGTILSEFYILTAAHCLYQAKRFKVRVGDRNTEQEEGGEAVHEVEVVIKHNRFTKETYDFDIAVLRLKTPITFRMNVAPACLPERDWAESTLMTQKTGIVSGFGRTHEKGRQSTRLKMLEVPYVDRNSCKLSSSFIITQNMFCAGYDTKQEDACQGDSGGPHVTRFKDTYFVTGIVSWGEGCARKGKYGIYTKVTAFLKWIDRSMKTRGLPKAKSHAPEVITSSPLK
factor Xa, sequence (P00742 41-179 partner limits assumed): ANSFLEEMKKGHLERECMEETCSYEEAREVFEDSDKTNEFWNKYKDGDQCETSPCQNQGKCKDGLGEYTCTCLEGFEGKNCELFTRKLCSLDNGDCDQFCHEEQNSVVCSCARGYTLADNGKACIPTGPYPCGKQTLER

tosyl-glycy-prolyl-arginine-4-nitroanilide acetate [reduced Chromozym TH]
portion of the reduced Chromozym TH cleaved due alone to the action of factor Xa: about 25%
